Results published in patent publication US20220002806A1, “BIOMARKER” (ERBER AKTIENGESELLSCHAFT, priority 2018, published 2022).

Test system: miRNAs in uterus tissue
Test: Small RNA sequencing (RNA-Seq) of miRNAs in uterus tissue of ZEN-exposed piglets
Assay type: in vivo, pig (Sus scrofa)
Conditions: for fold change of ssc-miRNA-542-3p in uterus compared to the control group: highest fold change of the group
Text: Weaned female piglets (sow: Landrace×Large White, boar: Pietrain; 30+/−2 days old) were obtained from a local producer and individually tagged. Piglets were housed in slatted floor pens under controlled environmental conditions. After an acclimatization period of seven days, twenty-four female piglets were selected based on both body weight and vulva size, and allocated to one of four groups (6 animals/group). Piglets received either blank feed (negative control; Ctrl) or feed contaminated with ZEN in three increasing concentrations (ZEN low: 0.17 mg/kg diet; ZEN medium: 1.5 mg/kg diet; ZEN high: 4.6 mg/kg diet). During the 28-day experimental period, each treatment group was given free access to water and the assigned diet. The pigs were observed daily and weighed weekly.
After 28 days of dietary exposure to the experimental diets, pigs were anesthetized by intramuscular injection of ketamine (0.1 mL/kg body weight (b.w.) Narketan®, Vétoquinol GmbH, Ravensburg, Germany) and azaperone (0.03 mL/kg b.w.; Stresnil®, Janssen-Cilag, Neuss, Germany). Subsequently, animals were euthanized by intracardial injection of T61® (Intervet, UnterschleiBheim, Germany; 0.1 ml/kg b.w.). The whole reproductive tract was collected, weighed and examined for any clinical signs. Small pieces of the corpus uteri and the mid-jejunum were dissected, placed into 1 mL of RNAlater, and stored overnight at 4° C. The next day, all the tissue samples were transferred to −80° C. for long-term storage, and until processed for transcriptomics analysis.
miRNA Extraction and Library Preparation: A total of 18 animals was used for investigations on the miRNA profile in the tissues: 6 from Ctrl, 4 from ZEN low, 4 from ZEN medium, and 4 from ZEN high. About 30 mg of tissue from uterus or jejunum was disrupted via a bead-beating step, and the total RNA, including RNA from approximately 18 nucleotides upwards, was extracted and purified with the miRNeasy Mini Kit (Qiagen, Hilden, Germany), following the manufacturer's instructions. The concentration of RNA was first estimated on the Nanodrop (Termo Scientifc NanoDrop 2000, USA), and again with the Agilent 2100 Bioanalyzer (Agilent Technologies, Germany) during the measurement of the RIN for determining the RNA quality. In total 1 μg of total RNA was used for construction of small RNA sequencing libraries using the NEBNext Multiplex SmallRNA Library preparation set for Illumina (New England Biolabs). Adapter-ligated total RNA was reverse transcribed into cDNA, which was used as template for PCR amplification (15 cycles) using Illumina's SR Primer and Index Primers 1-18. Barcoded DNA libraries were purified using the QIAQuick PCR purification protocol (Qiagen, Hilden, Germany) and quantified using the DNA 1000 high sensitivity chip (Agilent Technologies, Germany). Purified samples were pooled at equimolar (50 nM) concentration. Size selection was performed using gel purification to select for insert sizes between 18 and 50 nucleotides. The final multiplexed (n=18) libraries were sequenced on a NextSeq 500 sequencing instrument according to the manufacturer instructions. Raw data was de-multiplexed and FASTQ files for each sample was generated using the bcl2fastq software (Illumina inc.). FASTQ data was checked using the FastQC online tool (http://www.bioinformatics.babraham.ac.uk/projects/fastqc/).
RNA sequencing (RNA-Seq) Bioinformatics Analysis: Total reads were adapter trimmed using Cutadapt and quality filtered (Q-Score >30) using the FastQC tool. Trimmed and quality filtered reads were aligned to reference miRNA sequences in miRBase release 21 (www.mirbase.org; Kozomora and Griffiths-Jones. 2014. Nucleid Acids Research, 42, D68-D73) using bowtie2. Subsequently, reads were mapped against the Sus scrofa genome assembly Sscrofa10.2 as well as Ensembl small non-coding RNA reference databases. Reads were normalized to the total read count per library to generate tags per million (TPM) values. […]

[1] = Ctrl vs ZEN high (4.6 mg/kg diet), 28 days in feed
[2] = Ctrl vs ZEN low (0.17 mg/kg diet), 28 days in feed
[3] = ZEN high group (4.6 mg/kg diet) vs Ctrl, 28 days in feed
[4] = both ZEN medium (1.5 mg/kg diet) and ZEN high (4.6 mg/kg diet) group vs Ctrl, 28 days in feed

## C[C@H]1CCCC(=O)CCC/C=C/c2cc(O)cc(O)c2C(=O)O1 [ZEN, (2E,11S)-15,17-dihydroxy-11-methyl-12-oxabicyclo[12.4.0]octadeca-1(18),2,14,16-tetraene-7,13-dione]
[1]
  log2 fold change of hsa-miR-135b-5p in uterus: log2 fold change Ctrl vs ZEN high ≤ −1.5,
  log2 fold change of hsa-miR-301a-5p in uterus: log2 fold change Ctrl vs ZEN high ≤ −1.5,
  log2 fold change of put-miR-300 in uterus: ZEN high ≤ −1.5, TPM > 10
  log2 fold change of ssc-miR-22-3p in uterus: Ctrl vs ZEN high ≥ 1.5; TPM > 10
  log2 fold change of ssc-miR-129a in uterus: log2 fold change Ctrl vs ZEN high < −1.5,
  log2 fold change of ssc-miR-135 in uterus: ZEN high ≤ −1.5, TPM > 10
  log2 fold change of ssc-miR-143-5p in uterus: ZEN high ≥ −1.5, TPM > 10
  log2 fold change of ssc-miR-187 in uterus: Crtrl vs ZEN high ≤ −1.5
  log2 fold change of ssc-miR-204 in uterus: log2 fold change Ctrl vs ZEN high ≤ −1.5,
  log2 fold change of ssc-miR-432-5p in uterus: change Ctrl vs ZEN high ≥ 1.5, specificity
  log2 fold change of ssc-miR-493-3p in uterus: log2 fold change Ctrl vs ZEN high ≥ 1.5,
  log2 fold change of ssc-miR-542-3p in uterus: ZEN high ≥ 1.5, TPM > 10
  log2 fold change of ssc-miR-758 in uterus: change Ctrl vs ZEN high ≥ 1.5
[2]
  log2 fold change of hsa-miR-135b-5p in uterus: log2 fold change Ctrl vs ZEN low ≤ −0.3,
  log2 fold change of hsa-miR-301a-5p in uterus: log2 fold change Ctrl vs ZEN low ≤ −0.3,
  log2 fold change of ssc-miR-22-3p in uterus: change Ctrl vs ZEN low ≥ 0.3, log2 fold
  log2 fold change of ssc-miR-133a-5p in uterus: change Ctrl vs ZEN low ≥ 0.3, TPM > 10
  log2 fold change of ssc-miR-195 in uterus: change Ctrl vs ZEN low ≥ 0.3, TPM > 10
  log2 fold change of ssc-miR-486 in uterus: change Ctrl vs ZEN low ≥ 0.3, TPM > 10
  log2 fold change of ssc-miR-493-5p in uterus: change Ctrl vs ZEN low ≥ 0.3, TPM > 10,
  log2 fold change of ssc-miR-497 in uterus: change Ctrl vs ZEN low ≥ 0.3, TPM > 10
  log2 fold change of ssc-miR-708-3p in uterus: low ≤ −0.3, TPM > 10
Ctrl vs ZEN medium (1.5 mg/kg diet), 28 days in feed
  log2 fold change of ssc-miR-187 in uterus: vs ZEN medium ≤ −0.3, log2 fold change
ZEN high (4.6 mg/kg diet)
  fold change of ssc-miRNA-542-3p in uterus compared to the control group: +12.6
ZEN high (4.6 mg/kg diet), lowest fold change of the group
  fold change of ssc-miRNA-204 in uterus compared to the control group: −4.1
[3]
  Response to ZEN treatment in uterus: hsa-miR-135b-5p: Significantly decreased in ZEN high
  Response to ZEN treatment in uterus: hsa-miR-301a-5p: Significantly decreased in ZEN high
  Response to ZEN treatment in uterus: ssc-miR-22-3p: Significantly increased in ZEN high group,
  Response to ZEN treatment in uterus: ssc-miR-22-5p: Significantly increased in ZEN high group,
  Response to ZEN treatment in uterus: ssc-miR-34a: Significantly increased in ZEN high group
  Response to ZEN treatment in uterus: ssc-miR-125a: Significantly decreased in ZEN high
  Response to ZEN treatment in uterus: ssc-miR-125b: Significantly decreased in ZEN high
  Response to ZEN treatment in uterus: ssc-miR-127: Significantly increased in ZEN high group
  Response to ZEN treatment in uterus: ssc-miR-129a: Significantly decreased in ZEN high
  Response to ZEN treatment in uterus: ssc-miR-133a-5p: Significantly increased in ZEN high group,
  Response to ZEN treatment in uterus: ssc-miR-135: Significantly decreased in ZEN high
  Response to ZEN treatment in uterus: ssc-miR-136: Significantly increased in ZEN high group,
  Response to ZEN treatment in uterus: ssc-miR-140-3p: Significantly increased in ZEN high group,
  Response to ZEN treatment in uterus: ssc-miR-142-3p: Significantly increased in ZEN high group,
  Response to ZEN treatment in uterus: ssc-miR-146b: Significantly decreased in ZEN high
  Response to ZEN treatment in uterus: ssc-miR-182: Significantly increased in ZEN high group
  Response to ZEN treatment in uterus: ssc-miR-183: Significantly increased in ZEN high group,
  Response to ZEN treatment in uterus: ssc-miR-195: Significantly increased in ZEN high group,
  Response to ZEN treatment in uterus: ssc-miR-204: Significantly decreased in ZEN high
  Response to ZEN treatment in uterus: ssc-miR-369: Significantly increased in ZEN high group
  Response to ZEN treatment in uterus: ssc-miR-378: Significantly increased in ZEN high group
  Response to ZEN treatment in uterus: ssc-miR-432-5p: Significantly increased in ZEN high group,
  Response to ZEN treatment in uterus: ssc-miR-455-3p: Significantly increased in ZEN high group,
  Response to ZEN treatment in uterus: ssc-miR-455-5p: Significantly increased in ZEN high group,
  Response to ZEN treatment in uterus: ssc-miR-486: Significantly increased in ZEN high group,
  Response to ZEN treatment in uterus: ssc-miR-493-3p: Significantly increased in ZEN high group,
  Response to ZEN treatment in uterus: ssc-miR-493-5p: Significantly increased in ZEN high group,
  Response to ZEN treatment in uterus: ssc-miR-708-3p: Significantly decreased in ZEN high
  Response to ZEN treatment in uterus: ssc-miR-758: Significantly increased in ZEN high group,
ZEN medium (1.5 mg/kg diet) and high (4.6 mg/kg diet) group vs Ctrl, 28 days in feed
  Response to ZEN treatment in uterus: put-miR-300: Significantly decreased in ZEN medium
ZEN medium (1.5 mg/kg diet)
  fold change of ssc-miRNA-542-3p in uterus compared to the control group: +3.9
ZEN medium (1.5 mg/kg diet), lowest fold change of the group
  fold change of ssc-miRNA-187 in uterus compared to the control group: −3.4
[4]
  Response to ZEN treatment in uterus: ssc-miR-1: Significantly increased in both ZEN
  Response to ZEN treatment in uterus: ssc-miR-143-5p: Significantly increased in both ZEN
  Response to ZEN treatment in uterus: ssc-miR-181c: Significantly decreased in both ZEN
  Response to ZEN treatment in uterus: ssc-miR-187: Significantly decreased in both ZEN
  Response to ZEN treatment in uterus: ssc-miR-206: Significantly increased in both ZEN
  Response to ZEN treatment in uterus: ssc-miR-335: Significantly decreased in both ZEN
  Response to ZEN treatment in uterus: ssc-miR-424-5p: Significantly increased in both ZEN
  Response to ZEN treatment in uterus: ssc-miR-450a: Significantly increased in both ZEN
  Response to ZEN treatment in uterus: ssc-miR-450b-5p: Significantly increased in both ZEN
  Response to ZEN treatment in uterus: ssc-miR-450c-5p: Significantly increased in both ZEN
  Response to ZEN treatment in uterus: ssc-miR-497: Significantly increased in both ZEN
  Response to ZEN treatment in uterus: ssc-miR-503: Significantly increased in both ZEN
  Response to ZEN treatment in uterus: ssc-miR-542-3p: Significantly increased in both ZEN
  Response to ZEN treatment in uterus: ssc-miR-7135-3p: Significantly increased in both ZEN
